Reference: patent EP4659764A1, “LINKER DRUG, AND PREPARATION METHOD AND USE OF ANTIBODY-DRUG CONJUGATE THEREOF” (Lepu Biopharma Co., Ltd., priority 2023, dated 2024)

Test system: SKBR3 (breast cancer cell line)
Assay: In vitro cell killing activity of ADCs, SKBR3
Assay type: cell-based
Conditions: Homo sapiens, SK-BR-3, incubation 72 hours, ADC DAR 8.0
From the text: Referring to the process of Example 13, the linker-drug conjugate mc-AAN-Exatecan was conjugated to a HER2 antibody, an EGFR antibody, and a non-specific binding antibody (Anti-HEL) respectively to prepare the corresponding ADCs. […] The cell killing activity was detected.

CC[C@@]1(O)C(=O)OCc2c1cc1n(c2=O)Cc2c-1nc1cc(F)c(C)c3c1c2[C@@H](N)CC3 [Extecan, Exatecan]
IC50: 2.02 nM
